Data as given in article PMC10976746 (Molecular Medicine, 2024).

How the values were obtained:
murine MIF = murine MIF (Mus musculus, UniProt P34884); assay: dopachrome tautomerase inhibition assay, recombinant mouse MIF; format: biochemical
[1] = biological target: T1, Macrophage migration inhibitory factor (MIF) (Homo sapiens, UniProt P14174)
T1 sequence (P14174 2-115): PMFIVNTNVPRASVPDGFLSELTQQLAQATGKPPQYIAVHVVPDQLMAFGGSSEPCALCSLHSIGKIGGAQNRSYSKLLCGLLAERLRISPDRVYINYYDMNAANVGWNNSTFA

Row | Structure (SMILES) | IC50 (murine MIF) [µM] | keto-enol tautomerase kinetics (Michaelis-Menten), enol-HPP/borate at 306 nm [1]
1 | CS(=O)(=O)Nc1cc2occ(NC=O)c(=O)c2cc1Oc1ccccc1 [T-614, iguratimod] | 5.2 | –
2 | O=C(O)C(=O)Cc1ccc(O)cc1 [4-HPP, 4-hydroxyphenylpyruvate] | – | (B) the substrate 4-HPP for MIF-induced keto-enol tautomerization
